What was measured:
[1] = tested on: Rat Brain A1 and A2-Receptors; conditions: cited from earlier work; for A1/A2 ratio: rat brain, reference 31; for A1/A2 ratio, value in square brackets: second value printed in brackets below, brackets not explained
[2] = tested on: ventricular myocytes cultured from chick embryos; assay: Pharmacological preconditioning: 5 min exposure to agent, then 90 min simulated ischemia; assay type: cell-based; conditions: for effect of PLD inhibition on protective effect of MRS1760: ethanol (0.5%) or propranolol (100 μM) with 10 nM MRS1760
Method: FIG. 14 is a graph showing that the partial A1 receptor agonist, 8-butylaminoCPA, mimics the cardioprotective effect of ischemic preconditioning. Ventricular myocytes were cultured from chick embryos 14 days in ovo. The ability of the partial A1 agonist, 8-butylaminoCPA (8-butylamino-N^6-cyclopentyladenosine), to induce preconditioning was determined. In brief, myocytes were exposed to 8-butylaminoCPA at the indicated concentrations for 5 min, incubated for 10 min with agonist-free medium, and then exposed to simulated ischemia for 90 min. The extent of myocyte injury was quantitated at the end of the 90 min period by determinating the percentage of cells killed and the amount of creatine kinase (CK) released (units per milligram of cell protein). Data are means±SE of values from five independent experiments.
(§1) Determination of myocyte injury was made at the end of the ninety-minute hypoxia, at which time myocytes were taken out of the hypoxic incubator and re-exposed to room air (normal % O2). Aliquots of the media were then obtained for creatine kinase (CK) activity measurement, which is followed by quantitation of the number of viable cells. Measurement of basal level of cell injury was made after parallel incubation of control cells under normal % O2. The extent of hypoxia-induced injury to the ventricular cell was quantitatively determined by the percentages of cells killed and by the amount of CK released into the media according to a previously described method (16, 23). […] In brief, the media were replaced with a trypsin-EDTA buffer to detach the cells, which was then followed by sedimentation of the viable myocytes. Parallel changes in % cells killed and CK released (16, 23) further validated this assay for % cells killed. The amount of CK was measured as enzyme activity (unit/mg), and increases in CK activity above the control level were determined. The percentage of cells killed was calculated as the number of cells obtained from the control group (representing cells not subjected to any hypoxia or drug treatment) minus the number of cells from the treatment group divided by number of cells in control group multiplied by 100%.
Media were then replaced with fresh media, which was then followed by exposure to 90-minute simulated ischemia and the data graphed.

[3] = tested on: isolated cardiac myocytes; assay: Apoptotic cell death by DNA laddering on 1.5% agarose gel; assay type: cell-based; conditions: for apoptotic cell death caused by prolonged exposure to the agent: no ischemia, agents that increase intracellular calcium
Method: Such smearing is indicative of a culmination of the apoptotic cell death pathway. Isolated cardiac myocytes were exposed to 90-min ischemia and 30-min reoxygenation (lanes 4 and 5). […] Lanes 1 and 2 represent myocytes not exposed to ischemia or any agent. Data were representative of three experiments.
Isolated cardiac myocytes were exposed to prolonged moderate simulated ischemia (17 hours with 2-3% O2). Lane 3 represents myocytes not exposed to ischemia or any agent. Lane 5 represents myocytes exposed to 17 hours of ischemia. […] Data were representative of three experiments.
Lane 3 represents myocytes not exposed to any agent. Lane 5 represents cardiac myocytes exposed (for three hours) to an agent (a P2X receptor agonist, 2-methylthioATP) known to increase intracellular calcium concentration. Prolonged exposure to 2-methylthioATP or UTP caused increased apoptosis (Lane 7). […] Data were representative of two experiments.
The effects of agents which target the adenosine receptor on apoptosis were initially examined in isolated cardiac myocytes exposed to ischemia (for 90 minutes and 30 minutes of reoxygenation) or agents which increase intracellular calcium levels. Increasing the level of intracellular calcium concentration induces non-ischemia-related apoptosis in vitro. Apoptotic cell death of cardiac myocytes was assessed by determining the extent of smearing or “DNA laddering” on 1.5% agarose gels.

[4] = tested on: cardiac ventricular myocytes cultured from chick embryos; assay: Hypoxia-induced myocyte injury, agent present during prolonged (90 min) hypoxia with glucose deprivation; assay type: cell-based; conditions: for cardioprotective effect when present during prolonged hypoxia (CK released, % myocytes killed): agonist present during prolonged hypoxia/simulated ischemia; for effect of antagonist on A1 agonist (CCPA, CHA, ADAC)-induced cardioprotection: antagonist with A1 agonist during prolonged hypoxia; for effect of antagonist on A3 agonist (IB-MECA, Cl-IB-MECA)-induced cardioprotection: antagonist with A3 agonist during prolonged hypoxia
Method: Ventricular cells were cultured from chick embryos 14 days in ovo as previously described (16, 23). Cells were cultivated in a humidified 5% CO2-95% air mixture at 37° C. […] The medium was changed to a HEPES-buffered medium containing (mM) 139 NaCl, 4.7 KCl, 0.5 MgCl2, 0.9 CaCl2, 5 HEPES (N-2-hydroxyethylpiperazine-N′-2-ethanesulfonic acid) and 2% fetal bovine serum, pH 7.4, 37° C. before exposing the myocytes to the various conditions at 37° C. Control myocytes were maintained in the HEPES-buffered media under room air. Ninety-minute exposure of the myocytes to hypoxia with glucose deprivation was used to induce cell injury. Hypoxia was produced by placing the cells in a hypoxic incubator (NuAire) where O2 was replaced by N2 as previously described (16,23). Effects of adenosine receptor agonists and antagonists on the extent of myocyte injury were determined by exposure of the prepared cells to these agents during the prolonged hypoxia.
as §1

[5] = in the presence of adenosine and 8-SPT (100 μM) during hypoxia
[6] = 8-SPT alone present during the hypoxia

SMILES | A1/A2 ratio [1] | further results
COc1ccc(C=Cc2nc3c(c(=O)n(C)c(=O)n3C)n2C)c(OC)c1OC [43b] | 34 | –
COc1cc(C=Cc2nc3c(c(=O)n(C)c(=O)n3C)n2C)cc(OC)c1OC [44b] | 70 | A1/A2 ratio, value in square brackets [1]: [>5600]
OC[C@@]12C[C@@H]1[C@@H](n1cnc3c(NCc4cccc(I)c4)ncnc31)[C@H](O)[C@@H]2O [MRS1743] | – | preconditioning / cardioprotective effect ([2]; agent alone, 5 min exposure before 90 min ischemia): exerting a potent preconditioning-like effect
COc1ccc(C=Cc2nc3c(c(=O)n(C)c(=O)n3C)n2C)cc1OC [32b] | 70 | –
Cn1c(=O)c2c(nc(C=Cc3cccc(Cl)c3)n2C)n(C)c1=O [CSC, 8-(3-chlorostyryl)caffeine] | – | apoptosis (DNA laddering) ([3]; prolonged moderate ischemia, 17 hours with 2-3% O2): reduced apoptosis induced by the prolonged moderate ischemia
Cn1c(=O)c2c(nc(C=Cc3cccc(F)c3)n2C)n(C)c1=O [27b] | 190 | –
CC(C)NCC(O)COc1cccc2ccccc12 (stereo not drawn) [Propranolol] | – | effect of PLD inhibition on protective effect of MRS1760 [2]: also abolished the protective effect of MRS1760
OC[C@H]1O[C@@H](n2cnc3c(NC4CCCCC4)ncnc32)[C@H](O)[C@@H]1O [CHA, N^6-cyclohexyladenosine] | – | cardioprotective effect when present during prolonged hypoxia (CK released, % myocytes killed) [4]: able to protect the myocytes when present during the prolonged hypoxia
COc1cc(C=Cc2nc3c(c(=O)n(C)c(=O)n3C)n2C)cc(OC)c1OCCCCN [compound 38] | 36 | –
COc1cc(C=Cc2nc3c(c(=O)n(C)c(=O)n3C)n2C)cc(OC)c1OCC=CCN [compound 40] | 28 | –
CCOC(=O)C1=C(C)NC(c2ccccc2)=C(C(=O)OCC)C1/C=C/c1ccccc1 (stereo not drawn) [MRS 1097, 3,5-Diethyl 2-methyl-6-phenyl-4-[2-phenyl-(E)-vinyl]-1,4-(1)-dihydropyridine-3,5-dicarboxylate] | – | effect of antagonist on A1 agonist (CCPA, CHA, ADAC)-induced cardioprotection [4]: neither MRS 1191 nor MRS 1097 was able to block the CCPA-induced cardioprotection; effect of antagonist on A3 agonist (IB-MECA, Cl-IB-MECA)-induced cardioprotection [4]: able to block the cardioprotective effect of Cl-IB-MECA
Cn1c(=O)c2c(nc(/C=C/c3cccc(C(F)(F)F)c3)n2C)n(C)c1=O [20b] | 25 | –
COc1cc(C=Cc2nc3c(c(=O)n(C)c(=O)n3C)n2C)cc(OC)c1OCCCCNC(=O)OC(C)(C)C [compound 39] | 42 | –
COc1cc(C=Cc2nc3c(c(=O)n(C)c(=O)n3C)n2C)cc(OC)c1O [compound 35] | 19 | –
CNC(=O)[C@H]1O[C@@H](n2cnc3c(NCc4cccc(I)c4)ncnc32)[C@H](O)[C@@H]1O [IB-MECA, N6-(3-iodobenzyl)adenosine-5′-N-methyluronamide] | – | cardioprotective effect when present during prolonged hypoxia (CK released, % myocytes killed) [4]: capable of protecting the cardiac myocytes against hypoxia-induced injury
O=c1ccn([C@@H]2O[C@H](COP(=O)(O)OP(=O)(O)OP(=O)(O)O)[C@@H](O)[C@H]2O)c(=O)[nH]1 [UTP] | – | apoptotic cell death caused by prolonged exposure to the agent [3]: caused an increase in apoptotic cell death
Cn1c(=O)c2c(nc(C=Cc3cccc(NC(=O)CCC(=O)O)c3)n2C)n(C)c1=O [compound 24] | 250 | –
COc1ccc2c(c1)CC[C@@H]1[C@@H]2CC[C@]2(C)[C@@H](NCCCCCCN3C(=O)C=CC3=O)CC[C@@H]12 [U-73122] | – | effect of PLC inhibitor on protective response to 8-butylaminoCPA ([2]; U-73122 (10 μM) with 1 μM 8-butylaminoCPA): able to block the protective response to 8-butylaminoCPA
COc1cc(C=Cc2nc3c(c(=O)n(C)c(=O)n3C)n2C)cc(OC)c1OC(C)=O [compound 36] | 93 | –
COc1cccc(C=Cc2nc3c(c(=O)n(C)c(=O)n3C)n2C)c1 [19b] | 64 | –

SMILES | A1/A2 ratio [1] | further results
COc1cc(C=Cc2nc3c(c(=O)n(C)c(=O)n3C)n2C)cc(OC)c1OCC=CCNC(C)=O [compound 41] | >50 | –
Nc1ncnc2c1ncn2[C@@H]1O[C@H](CO)[C@@H](O)[C@H]1O [Adenosine] | – | CK released ([4]; adenosine 10 μM added during ninety-minute hypoxia, hypoxia alone 28.5±1.5): 14.9±3 unit/mg; % cells killed ([4]; adenosine 10 μM added during ninety-minute hypoxia, hypoxia alone 30±2): 12±2%; % cells killed [4, 5]: 28±3%; CK released [4, 5]: 31±5 unit/mg
CNC(=O)C1OC(n2cnc3c(NCc4cccc(S(=O)(=O)O)c4)ncnc32)C(O)C1O (stereo not drawn) [MRS 1340] | – | creatine kinase released during prolonged simulated ischemia ([4]; increasing concentrations, presence and absence of DPCPX (FIGS. 3A-3D)): cardioprotective effects
Cn1c(=O)c2[nH]c(-c3ccc(S(=O)(=O)O)cc3)nc2n(C)c1=O [8-SPT, 8-sulfophenyl-theophylline] | – | % cells killed [4, 6]: 31.6±1.5%; CK released [4, 6]: 29.6±1.2 unit/mg
CCO [ethanol] | – | effect of PLD inhibition on protective effect of MRS1760 [2]: abolished the protective effect of MRS1760
COc1cc(C=Cc2nc3c(c(=O)n(C)c(=O)n3C)n2C)cc(OC)c1OCC=CCNC(=O)OC(C)(C)C [compound 42] | >40 | –
CSc1nc(N)c2ncn([C@@H]3O[C@H](COP(=O)(O)OP(=O)(O)OP(=O)(O)O)[C@@H](O)[C@H]3O)c2n1 [2-methylthioATP] | – | apoptotic cell death caused by prolonged exposure to the agent [3]: caused an increase in apoptotic cell death
Cn1c(=O)c2c(nc(C=Cc3cccc(NC(=O)OC(C)(C)C)c3)n2C)n(C)c1=O [compound 25] | 30 | –
C=CCn1c(=O)c2c(nc(C=Cc3cc(OC)c(OC)c(OC)c3)n2C)n(CC=C)c1=O [compound 46] | 13 | A1/A2 ratio, value in square brackets [1]: [>6700]
Cn1c(=O)c2c(nc(C=Cc3cccc([N+](=O)[O-])c3)n2C)n(C)c1=O [21b] | 11 | –
COc1ccccc1C=Cc1nc2c(c(=O)n(C)c(=O)n2C)n1C [17b] | 18 | –
Cn1c(=O)c2c(nc(C=Cc3cccc(N(C(=O)OC(C)(C)C)C(=O)OC(C)(C)C)c3)n2C)n(C)c1=O [compound 26] | 15 | –
COc1cc(C=Cc2nc3c([nH]2)c(=O)n(C)c(=O)n3C)cc(OC)c1 [33a] | 25 | –
COc1cc(C=Cc2nc3c(c(=O)n(C)c(=O)n3C)n2C)cc(OC)c1 [33b] | >200 | –
CCCn1c(=O)c2[nH]c(C3CCCC3)nc2n(CCC)c1=O [DPCPX, 8-cyclopentyl-1,3-dipropylxanthine] | – | effect of antagonist on A1 agonist (CCPA, CHA, ADAC)-induced cardioprotection [4]: blocked by the A1 antagonist DPCPX; effect of antagonist on A3 agonist (IB-MECA, Cl-IB-MECA)-induced cardioprotection [4]: had no effect on the ability of IB-MECA or Cl-IB-MECA to mediate their cardioprotective effects
CC(=O)Nc1cccc(C=Cc2nc3c(c(=O)n(C)c(=O)n3C)n2C)c1 [compound 23] | 240 | –
Cn1c(=O)c2c(nc(C=Cc3cccc(N)c3)n2C)n(C)c1=O [22b] | 30 | –
CCCn1c(=O)c2c(nc(C=Cc3cc(OC)cc(OC)c3)n2C)n(CCC)c1=O [53b] | 110 | –
Cn1c(=O)c2c(nc(C=Cc3cc(F)cc(F)c3)n2C)n(C)c1=O [34b] | 230 | –
COc1ccc(C=Cc2nc3c(c(=O)n(C)c(=O)n3C)n2C)cc1 [29b] | 44 | –
